Results: patent US20090253785A1, “Bactericide composition” (priority 2007, published 2009)

Experiments:
Assay type in all cases: cell-based
[1] = tested on: Staphylococcus aureus (S. aureus); experiment: Quantitative test of bacterial suspension, S. aureus; settings: for Anti-bacteria ratio / Remaining bacteria: S. aureus, incubated 24 hours
Procedure: (§1) S. aureus, E. coli, MRSA and P. acnes were respectively prepared to form a suspension. The concentration of the suspension was about 1.5×10^8 CFU/ml (density=0.5 McFarland), and then was diluted 100 times (about 1.5×10^6 CFU/ml).
(§2) L-ascorbic acid solutions were prepared respectively in concentrations of 1 wt %, 5 wt %, 10 wt %, 15 wt %, 20 wt %, 25 wt % and 30 wt %. The different concentrations of L-ascorbic acid solutions were used as a test. A hydrochloric acid solution and distilled water were used respectively as a positive control and a negative control, and the pH value of the hydrochloric acid solution was the same of the pH value of the 25 wt % L-ascorbic acid solution.
(§3) 1 ml bacterial suspension was added to a 9 ml L-ascorbic acid solution for testing, and equal amounts of the bacterial suspension were added respectively to the positive control of 9 ml hydrochloric acid solution and the negative control of 9 ml distilled water, and then all solutions were incubated for 24 hours.
(§4) After incubating for 24 hours, all the solutions were series diluted, until diluted 1000 times to form a series of dilution solutions.
(§5) To calculate bacteria remaining in the solutions, 0.2 ml of each series of dilution solutions were cultured respectively on Petri dishes and repeated twice.
(§6) Each Petri dish was cultured in an incubator at 35±2° C. for 1˜2 days (S. aureus, E. coli) or for 2˜4 days (MRSA and P. acnes) to observe bacteria growth on Petri dish and the bacteria were counted.
(§7) Anti-bacterial ratio (%)=[(remaining bacteria of controls−remaining bacteria of test)/remaining bacteria of controls]×100%

[2] = tested on: Escherichia coli (E. coli); experiment: Quantitative test of bacterial suspension, E. coli; settings: for Anti-bacteria ratio / Remaining bacteria: E. coli, incubated 24 hours
Procedure: as §1, §2, §3, §4, §5, §6, §7

[3] = tested on: Methicillin-resistant Staphylococcus aureus (MRSA); experiment: Quantitative test of bacterial suspension, MRSA; settings: for Anti-bacteria ratio / Remaining bacteria: MRSA, incubated 24 hours
Procedure: as §1, §2, §3, §4, §5, §6, §7

[4] = tested on: Propionibacterium acnes (P. acnes); experiment: Quantitative test of bacterial suspension, P. acnes; settings: for Anti-bacteria ratio / Remaining bacteria: P. acnes, incubated 24 hours
Procedure: as §1, §2, §3, §4, §5, §6, §7

[5] = positive control solution, pH 1.68
[6] = 1 wt % to 30 wt % solution, incubating for 24 hours

With `Cl` [Hydrochloric acid, reference compound] the Anti-bacteria ratio [1, 5] was 99.99%, the Remaining bacteria [1, 5] was 18 CFU/mL and the Anti-bacteria ratio [2, 5] was 100%. The Remaining bacteria [2, 5] was 0 CFU/mL.
For `O=C1O[C@H]([C@@H](O)CO)C(O)=C1O` [L-ascorbic acid], the “remaining S. aureus found” value ([1]; 15 wt % to 30 wt % solution, incubating for 24 hours) was “no remaining”, the Anti-bacteria ratio ([1]; 1% solution, pH 2.70) was 99.72% and the Remaining bacteria ([1]; 1% solution, pH 2.70) was 2.5 × 10^4 CFU/mL. For the same compound, the Anti-bacteria ratio ([1]; 5% solution, pH 2.28) was 99.97%, the Remaining bacteria ([1]; 5% solution, pH 2.28) was 3.0 × 10^3 CFU/mL and the Anti-bacteria ratio ([1]; 10% solution, pH 2.05) was 99.99%. The Remaining bacteria ([1]; 10% solution, pH 2.05) was 2.0 × 10^2 CFU/mL, the Anti-bacteria ratio ([1]; 15% solution, pH 1.93) was 100% and the Remaining bacteria ([1]; 15% solution, pH 1.93) was 0 CFU/mL. It also gave an Anti-bacteria ratio ([1]; 20% solution, pH 1.80) of 100%, a Remaining bacteria ([1]; 20% solution, pH 1.80) of 0 CFU/mL and an Anti-bacteria ratio ([1]; 25% solution, pH 1.68) of 100%. For the same compound, the Remaining bacteria ([1]; 25% solution, pH 1.68) was 0 CFU/mL, the Anti-bacteria ratio ([1]; 30% solution, pH 1.59) was 100% and the Remaining bacteria ([1]; 30% solution, pH 1.59) was 0 CFU/mL. For the same compound, the “remaining E. coli found in the Petri dishes” value [2, 6] was “no remaining”, the Anti-bacteria ratio ([2]; 1% solution, pH 2.70) was 100% and the Remaining bacteria ([2]; 1% solution, pH 2.70) was 0 CFU/mL. It also gave an Anti-bacteria ratio ([2]; 5% solution, pH 2.28) of 100%, a Remaining bacteria ([2]; 5% solution, pH 2.28) of 0 CFU/mL and an Anti-bacteria ratio ([2]; 10% solution, pH 2.05) of 100%. It also gave a Remaining bacteria ([2]; 10% solution, pH 2.05) of 0 CFU/mL, an Anti-bacteria ratio ([2]; 15% solution, pH 1.93) of 100% and a Remaining bacteria ([2]; 15% solution, pH 1.93) of 0 CFU/mL. It also gave an Anti-bacteria ratio ([2]; 20% solution, pH 1.80) of 100%, a Remaining bacteria ([2]; 20% solution, pH 1.80) of 0 CFU/mL and an Anti-bacteria ratio ([2]; 25% solution, pH 1.68) of 100%. The Remaining bacteria ([2]; 25% solution, pH 1.68) was 0 CFU/mL, the Anti-bacteria ratio ([2]; 30% solution, pH 1.59) was 100% and the Remaining bacteria ([2]; 30% solution, pH 1.59) was 0 CFU/mL. For the same compound, the “remaining MRSA found” value ([3]; 5 wt % to 30 wt % solution, incubating for 24 hours) was “no remaining”, the Anti-bacteria ratio ([3]; 1% solution, pH 2.70) was 99.99% and the Remaining bacteria ([3]; 1% solution, pH 2.70) was 2.0 × 10^3 CFU/mL. It also gave an Anti-bacteria ratio ([3]; 5% solution, pH 2.28) of 100%, a Remaining bacteria ([3]; 5% solution, pH 2.28) of 0 CFU/mL and an Anti-bacteria ratio ([3]; 10% solution, pH 2.05) of 100%. For the same compound, the Remaining bacteria ([3]; 10% solution, pH 2.05) was 0 CFU/mL, the Anti-bacteria ratio ([3]; 15% solution, pH 1.93) was 100% and the Remaining bacteria ([3]; 15% solution, pH 1.93) was 0 CFU/mL. For the same compound, the Anti-bacteria ratio ([3]; 20% solution, pH 1.80) was 100%, the Remaining bacteria ([3]; 20% solution, pH 1.80) was 0 CFU/mL and the Anti-bacteria ratio ([3]; 25% solution, pH 1.68) was 100%. The Remaining bacteria ([3]; 25% solution, pH 1.68) was 0 CFU/mL, the Anti-bacteria ratio ([3]; 30% solution, pH 1.59) was 100% and the Remaining bacteria ([3]; 30% solution, pH 1.59) was 0 CFU/mL. The “remaining P. acnes found in the Petri dishes” value [4, 6] was “no remaining”, the Anti-bacteria ratio ([4]; 1% solution, pH 2.70) was 100% and the Remaining bacteria ([4]; 1% solution, pH 2.70) was 0 CFU/mL. The Anti-bacteria ratio ([4]; 5% solution, pH 2.28) was 100%, the Remaining bacteria ([4]; 5% solution, pH 2.28) was 0 CFU/mL and the Anti-bacteria ratio ([4]; 10% solution, pH 2.05) was 100%. The Remaining bacteria ([4]; 10% solution, pH 2.05) was 0 CFU/mL, the Anti-bacteria ratio ([4]; 15% solution, pH 1.93) was 100% and the Remaining bacteria ([4]; 15% solution, pH 1.93) was 0 CFU/mL. For the same compound, the Anti-bacteria ratio ([4]; 20% solution, pH 1.80) was 100%, the Remaining bacteria ([4]; 20% solution, pH 1.80) was 0 CFU/mL and the Anti-bacteria ratio ([4]; 25% solution, pH 1.68) was 100%. The Remaining bacteria ([4]; 25% solution, pH 1.68) was 0 CFU/mL, the Anti-bacteria ratio ([4]; 30% solution, pH 1.59) was 100% and the Remaining bacteria ([4]; 30% solution, pH 1.59) was 0 CFU/mL.
